Consider 13 compounds from PubChem BioAssay (NCI).

Common to all, as to assay: inhibition of tumour cell growth, NCI panel, 48 h
For experiment [1], the system named is PC-3 prostate.
In experiment [2] the test system is MCF7 breast.
Experiment [3] concerns SK-OV-3 ovarian.
Experiment [4] relates to UACC-257 melanoma.
Experiment [5] has as its system M14 melanoma.
The test system of experiment [6] is OVCAR-4 ovarian.
Experiment [7] concerns A549 NSCLC.
The subject of experiment [8] is LOX IMVI melanoma.
Experiment [9] has as its system SN12C renal.
The test system of experiment [10] is HT29 colon.

“And” between values parts separate entries of the source, which are not always exact repeats. Equal entries are not always repeated.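 The compound was tested at five concentrations on cells cultured in 96-well plates, with a 48-hour exposure period. Abbreviation: GI50, concentration required for 50% inhibition of growth. TGI is the concentration that stops growth completely.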 Bounds are passed on as bounds.

On to `C=C1CCC2C(C)(CO)C(O)CCC2(C)C1C/C=C1\C(=O)OCC1O` (stereo unspecified), for which the TGI was determined as 71.6 µM in [1]; 31.3 µM in experiment [2]; 66.7 µM in experiment [3]; 73.8 µM in [4]; 53.7 µM in experiment [5]; 23.5 µM in experiment [6]. Further, the TGI in experiment [7] was 80.9 µM; in experiment [8] it was 30.4 µM; in experiment [9], 35.8 µM; in experiment [10] it was 25.8 µM.

On to `Fc1nc(Sc2ncnc3nc[nH]c23)nc(-c2c3ccccc3c3sc4ccccc4n23)n1`, for which the TGI in experiment [1], in [2], in experiment [3], in experiment [4], in experiment [5] and in [6] was greater than 100 µM throughout. Further, the TGI in [7], in experiment [8], in [9] and in experiment [10] was greater than 100 µM each time.

`COc1ccc([C@H]2c3[nH]c4ccccc4c3C[C@H]3C(=O)N(CCCCCCC(=O)NO)CC(=O)N23)cc1`: the GI50 in [1] was 2.42 µM; in experiment [2], 1.78 µM; in [3] it was 3.02 µM; in experiment [4] it was 1.12 µM; in experiment [5], 1.75 µM; in experiment [6], 12.4 µM. For the same compound, the GI50 is 5.28 µM in [7], 1.54 µM in [8], 4.19 µM in experiment [9] and 3.73 µM in experiment [10]. Further, the TGI in [1], in experiment [2], in experiment [3], in experiment [4], in experiment [5] and in [6] was greater than 33.3 µM in each case. Besides, the TGI in experiment [7] was greater than 33.3 µM; in [8], 5.91 µM; in experiment [9] it was greater than 33.3 µM; in experiment [10], greater than 33.3 µM.

Regarding `COC(=O)c1sc(=S)c2sc(C(=O)OC)c(C(=O)OC)c2c1C(=O)OC`, the GI50 in experiment [1] is 37.2 µM; in experiment [2], 40 µM; in experiment [3] it was greater than 100 µM; in experiment [4], 26.8 µM; in [5] it was 32.5 µM; in experiment [6], 82.2 µM. Also, the GI50 in [7] is 51.2 µM; in experiment [8], 46.3 µM; in experiment [9], 30.7 µM; in experiment [10], 72.6 µM. Besides, the TGI in experiment [1] was greater than 100 µM; in [2], greater than 100 µM; in [3] it was greater than 100 µM; in experiment [4], 92 µM; in experiment [5] it was greater than 100 µM; in experiment [6] it was greater than 100 µM. Also, the TGI in experiment [7], in experiment [8], in experiment [9] and in experiment [10] was greater than 100 µM throughout.

For the compound `Cn1cc(C2=C(c3cccc([N+](=O)[O-])c3)C(=O)NC2=O)c2ccccc21`, the GI50 in [1] was 5.61 µM; in experiment [2] it was 3.17 µM; in [3], 6.35 µM; in experiment [4] it was 9.99 µM; in experiment [5] it was 12.4 µM; in [6] it was 6.06 µM. Besides, the GI50 in experiment [7] was 8.52 µM; in [8] it was 3.94 µM; in experiment [9] it was 9.61 µM; in experiment [10], 7.29 µM. Besides, the TGI in [1] is greater than 25 µM; in [2], greater than 25 µM; in experiment [3], greater than 25 µM; in experiment [4], greater than 22.7 µM; in [5], greater than 25 µM; in experiment [6], greater than 25 µM. Further, the TGI in experiment [7], in [8], in experiment [9] and in [10] was greater than 25 µM in each case.

In the case of `NCC[PH+](c1ccccc1)c1ccccc1.NCC[PH+](c1ccccc1)c1ccccc1.[Cl-].[Pt+4]`, the GI50 in [1], in experiment [2], in experiment [3], in [4], in [5] and in experiment [6] was greater than 100 µM in each case. The GI50 in [7] is greater than 100 µM; in experiment [8], greater than 100 µM; in [9], greater than 100 µM; in experiment [10] it was 85 µM. For the same compound, the TGI in [1], in [2], in experiment [3], in experiment [4], in experiment [5] and in experiment [6] was greater than 100 µM throughout. Moreover, the TGI in [7], in experiment [8], in experiment [9] and in experiment [10] was greater than 100 µM throughout.

Regarding `CN(C)CC(=O)N1CCc2c([nH]c3ccccc23)C1c1cccnc1` (stereo unspecified), the GI50 in [1] was 93 µM; in experiment [2] it was 70.2 µM. The TGI in [1], in experiment [2], in experiment [3], in [4], in experiment [5] and in [6] was greater than 100 µM in each case. Besides, the TGI in experiment [7], in [8], in experiment [9] and in experiment [10] was greater than 100 µM in each case.

On to `COc1ccc(-c2nn(-c3cccc(Cl)c3)cc2-c2c(C#N)c(=O)n3[nH]c(-c4ccc(C)o4)nc3c2C#N)cc1`, for which the GI50 in [1] is 2.25 µM; in experiment [2], 1.75 µM; in experiment [3], 11.7 µM; in experiment [4], 8.45 µM; in experiment [5], 5.49 µM; in experiment [6], 6.59 µM. Also, the GI50 in [7] was 4.57 µM; in experiment [8], 3.92 µM; in [9] it was 5.3 µM; in experiment [10], 7.21 µM. Moreover, the TGI is greater than 50 µM in experiment [1]; greater than 50 µM in experiment [2]; greater than 50 µM in [3]; greater than 50 µM in experiment [4]; 22.4 µM in experiment [5]; greater than 50 µM in experiment [6]. Also, the TGI in [7] was greater than 50 µM; in experiment [8], 12.3 µM; in experiment [9], greater than 50 µM; in [10], 33.6 µM.

On to `CSc1ccc2c(c1)N(CCCN(C)C)c1ccccc1S2`, for which the TGI was 23.8 µM in experiment [1]; 26.1 µM in experiment [2]; 29.4 µM in experiment [3]; 19.9 µM in experiment [4]; 17.8 µM in [5]; 24.5 µM in experiment [6]. Moreover, the TGI is 30.2 µM in experiment [7], 32.4 µM in [8], 28.5 µM in experiment [9] and 21.1 µM in [10].

Regarding `Cc1cc(=O)[nH]c2c1C(=O)c1c(C)cc(=O)n(C)c1C2=O`, the TGI in [1] worked out at 0.391 µM; in [2], 0.0356 µM; in [3], 0.432 µM; in experiment [4], 0.0307 µM; in experiment [5], 0.0282 µM; in experiment [6] it was 0.378 µM. The TGI in [7] came to 0.399 µM; in [8], 0.26 µM; in experiment [9] it was 0.195 µM; in experiment [10], 0.208 µM.

As to `CC(C)(C)c1cnc(CSc2cnc(NC(=O)C3CCNCC3)s2)o1`, the GI50 in experiment [1] was 0.21 µM and 0.19 µM; in experiment [2] it was 0.0522 µM and 0.0505 µM; in [3], 0.475 µM and 0.569 µM; in [4], 0.221 µM and 0.317 µM; in experiment [5], 0.441 µM and 0.564 µM; in [6], 0.273 µM and 0.281 µM. The GI50 is 0.256 µM and 0.23 µM in experiment [7]; 0.218 µM and 0.131 µM in experiment [8]; 0.262 µM and 0.215 µM in [9]; 0.181 µM and 0.182 µM in experiment [10]. Moreover, the TGI was 2.81 µM and > 9 µM in experiment [1]; greater than 53.3 µM in experiment [2]; greater than 100 µM in experiment [3]; 0.634 µM and 1.74 µM in experiment [4]; 2.87 µM and 2.61 µM in experiment [5]; 2.67 µM and > 8.21 µM in experiment [6]. The TGI is greater than 10 µM in experiment [7]; 14.5 µM and > 10 µM in experiment [8]; greater than 63.3 µM in experiment [9].

With `Cc1nc(Nc2ccc(Cl)c(Cl)c2)sc1C(/C=C/c1ccc2c(c1)OCO2)=N/Nc1ccc([N+](=O)[O-])cc1[N+](=O)[O-]`, the TGI in [1], in [2], in [3], in [4], in experiment [5] and in [6] was greater than 100 µM in each case. Besides, the TGI in [7], in experiment [8], in experiment [9] and in [10] was greater than 100 µM in each case.

As for `CNc1ccc(CSc2ccc(C)cc2)cc1`, the GI50 in [1] is 13.2 µM; in experiment [2], 21.2 µM; in experiment [3] it was greater than 100 µM; in experiment [4], 36.1 µM; in experiment [5], 13.6 µM; in [6], 7.44 µM. The GI50 is 5.34 µM in [7], 14.5 µM in experiment [8], 3.62 µM in [9] and 21.7 µM in [10]. Also, the TGI in [1] was greater than 100 µM; in experiment [2], greater than 100 µM; in [3] it was greater than 100 µM; in experiment [4] it was greater than 100 µM; in [5], 32.6 µM; in [6] it was greater than 100 µM. Further, the TGI in experiment [7] is greater than 100 µM; in experiment [8] it was greater than 100 µM; in experiment [9], 53.6 µM; in experiment [10], 77.8 µM.
